In ChEMBL document CHEMBL4339244, “Clavariopsins C-I, Antifungal Cyclic Depsipeptides from the Aquatic Hyphomycete Clavariopsis aquatica” (J Nat Prod, 2019):
Calls of active or inactive are those of the source. The calls are words filed in the database; no cut-off is given here.

Columns and labels:
[1] = system: HeLa S3; assay: Cytotoxicity in human HeLaS3 cells assessed as reduction in cell viability incubated for 48 hrs by MTT assay; format: functional, cell-based; settings: HeLa S3, 48 h
[2] = system: Botrytis cinerea; assay: Antifungal activity against Botrytis cinerea assessed as inhibition of microbial growth by measuring minimum inhibitory dose per disc inducing visually distinct inhibition zone between the paper disk and colony front by paper disk based assay; format: functional
[3] = system: Alternaria alternata; assay: Antifungal activity against Alternaria alternata assessed as inhibition of microbial growth by measuring minimum inhibitory dose per disc inducing visually distinct inhibition zone between the paper disk and colony front by paper disk based assay; format: functional
[4] = system: Colletotrichum orbiculare; assay: Antifungal activity against Colletotrichum orbiculare assessed as inhibition of microbial growth by measuring minimum inhibitory dose per disc inducing visually distinct inhibition zone between the paper disk and colony front by paper disk based assay; format: functional, organism-based
[5] = system: Fusarium oxysporum; assay: Antifungal activity against Fusarium oxysporum assessed as inhibition of microbial growth by measuring minimum inhibitory dose per disc inducing visually distinct inhibition zone between the paper disk and colony front by paper disk based assay; format: functional, organism-based
[6] = system: Aspergillus niger; assay: Induction of hyphal malformation in Aspergillus niger assessed as minimum effective dose per disc results in obvious morphological changes incubated for 16 hrs by phase contrast microscopy; format: functional
[7] = system: Pyricularia oryzae; assay: Antifungal activity against Magnaporthe oryzae assessed as inhibition of microbial growth by measuring minimum inhibitory dose per disc inducing visually distinct inhibition zone between the paper disk and colony front by paper disk based assay; format: functional, organism-based
[8] = system: Aspergillus niger; assay: Antifungal activity against Aspergillus niger assessed as inhibition of microbial growth by measuring minimum inhibitory dose per disc inducing visually distinct inhibition zone between the paper disk and colony front by paper disk based assay; format: functional, organism-based

SMILES | IC50 [1] [µM] | MID [2] [µg] | MID [3] [µg] | inhibition [4] | inhibition [5] | MED [6] [µg] | inhibition [7] | inhibition [8]
CC[C@H](C)[C@H]1C(=O)NCC(=O)N(C)[C@@H](C(C)C)C(=O)N[C@@H](Cc2ccc(OC)cc2)C(=O)O[C@H](C(C)C)C(=O)N2CCCC[C@H]2C(=O)N(C)[C@@H](C(C)C)C(=O)N[C@@H](C(C)C)C(=O)N(C)[C@@H](CC(=O)O)C(=O)N(C)[C@@H]([C@@H](C)CC)C(=O)N1C | > 10 | 0.01 to 0.3 | 0.01 | Active | Active | 0.3 | Active | Active
CC[C@H](C)[C@H]1C(=O)NCC(=O)N(C)[C@@H](C(C)C)C(=O)N[C@@H](Cc2ccc(OC)cc2)C(=O)O[C@H](C(C)C)C(=O)N2CCCC[C@H]2C(=O)N(C)[C@@H](C(C)C)C(=O)N[C@@H](C(C)C)C(=O)N(C)[C@@H](CC(=O)O)C(=O)N(C)[C@@H](CC(C)C)C(=O)N1C | > 10 | 0.01 to 0.3 | 0.03 to 0.3 | Active | Active | 0.3 | Active | Active
CC[C@H](C)[C@H]1C(=O)N(C)[C@@H](C(C)C)C(=O)NCC(=O)N(C)[C@@H](C(C)C)C(=O)N[C@@H](Cc2ccc(OC)cc2)C(=O)O[C@H](C(C)C)C(=O)N2CCCC[C@H]2C(=O)N(C)[C@@H](C(C)C)C(=O)N[C@@H](C(C)C)C(=O)N(C)[C@@H](CC(=O)O)C(=O)N1C | > 10 | 0.01 to 0.3 | 0.03 to 0.3 | Active | Active | 0.3 | Active | Active
CC[C@H](C)[C@H]1C(=O)NCC(=O)N(C)[C@@H](C(C)C)C(=O)N[C@@H](Cc2ccc(OC)cc2)C(=O)O[C@H](C(C)C)C(=O)N2CCCC[C@H]2C(=O)N(C)[C@@H](C(C)C)C(=O)N[C@@H](C(C)C)C(=O)N(C)[C@@H](CC(=O)O)C(=O)N(C)[C@@H](C(C)C)C(=O)N1C | > 10 | 0.01 to 0.3 | 0.01 | Active | Active | 0.3 | Active | Active
CC[C@H](C)[C@H]1C(=O)N(C)[C@@H](CC(C)C)C(=O)NCC(=O)N(C)[C@@H](C(C)C)C(=O)N[C@@H](Cc2ccc(OC)cc2)C(=O)O[C@H](C(C)C)C(=O)N2CCCC[C@H]2C(=O)N(C)[C@@H](C(C)C)C(=O)N[C@@H](C(C)C)C(=O)N(C)[C@@H](CC(=O)O)C(=O)N1C | > 10 | 0.01 to 0.3 | 0.03 to 0.3 | Active | Active | 0.3 | Active | Active
CC[C@H](C)[C@H]1C(=O)NCC(=O)N(C)[C@@H](C(C)C)C(=O)N[C@@H](Cc2ccc(OC)cc2)C(=O)O[C@H](C(C)C)C(=O)N2CCCC[C@H]2C(=O)N[C@@H](C(C)C)C(=O)N[C@@H](C(C)C)C(=O)N(C)[C@@H](CC(=O)O)C(=O)N(C)[C@@H]([C@@H](C)CC)C(=O)N1C | > 10 | 0.01 to 0.3 | 0.03 to 0.3 | Active | Active | 3 | Active | Active
CC[C@H](C)[C@H]1C(=O)NCC(=O)N(C)[C@@H](C(C)C)C(=O)N[C@@H](Cc2ccc(OC)cc2)C(=O)O[C@H](C(C)C)C(=O)N2CCC[C@H]2C(=O)N(C)[C@@H](C(C)C)C(=O)N[C@@H](C(C)C)C(=O)N(C)[C@@H](CC(=O)O)C(=O)N(C)[C@@H]([C@@H](C)CC)C(=O)N1C | > 10 | 0.01 to 0.3 | 0.03 to 0.3 | Active | Active | 0.3 | Active | Active
CC[C@H](C)[C@@H]1NC(=O)[C@H]([C@@H](C)CC)N(C)C(=O)[C@H](CC(=O)O)N(C)C(=O)[C@H](C(C)C)NC(=O)[C@H](C(C)C)N(C)C(=O)[C@@H]2CCCCN2C(=O)[C@@H](C(C)C)OC(=O)[C@H](Cc2ccc(OC)cc2)NC(=O)[C@H](C(C)C)N(C)C(=O)CNC1=O | > 10 | 0.01 to 0.3 | 0.01 | Active | Active | 0.3 | Active | Active
CC[C@H](C)[C@H]1C(=O)NCC(=O)N(C)[C@@H](C(C)C)C(=O)N[C@@H](Cc2ccc(OC)cc2)C(=O)O[C@H](C(C)C)C(=O)N2CCCC[C@H]2C(=O)N(C)[C@@H](C(C)C)C(=O)N[C@@H](CC(C)C)C(=O)N(C)[C@@H](CC(=O)O)C(=O)N(C)[C@@H]([C@@H](C)CC)C(=O)N1C | > 10 | 0.01 to 0.3 | 0.03 to 0.3 | Active | Active | 3 | Active | Active
